Source: PubChem BioAssay (NCI)
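Five concentrations, 48 hours, 96-well plates. TGI: total growth inhibition.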

Experiments:
Assay in all cases: NCI anticancer screen, dose series, 48 h
[1] = tested on: A498 renal
[2] = tested on: MDA-MB-231 breast
[3] = tested on: MOLT-4 leukemia
[4] = tested on: OVCAR-4 ovarian
[5] = tested on: LOX IMVI melanoma
[6] = tested on: ACHN renal
[7] = tested on: RPMI-8226 leukemia
[8] = tested on: NCI-H226 lung
[9] = tested on: UACC-257 melanoma
[10] = tested on: NCI-H23 lung
[11] = tested on: TK-10 renal
[12] = tested on: COLO 205 colon
[13] = tested on: SF-268 CNS
[14] = tested on: 786-0 renal
[15] = tested on: HS 578T breast
[16] = tested on: HCC-2998 colon
[17] = tested on: OVCAR-5 ovarian
[18] = tested on: EKVX NSCLC
[19] = tested on: SK-MEL-5 melanoma
[20] = tested on: HCT-116 colon
[21] = tested on: PC-3 prostate
[22] = tested on: UO-31 renal
[23] = tested on: BT-549 breast
[24] = tested on: OVCAR-3 ovarian
[25] = tested on: CAKI-1 renal
[26] = tested on: MDA-N
[27] = tested on: K-562 leukemia
[28] = tested on: OVCAR-8 ovarian
[29] = tested on: U251 CNS
[30] = tested on: DU-145 prostate
[31] = tested on: RXF 393 renal
[32] = tested on: SN12C renal
[33] = tested on: SNB-19 CNS
[34] = tested on: HOP-92 NSCLC
[35] = tested on: UACC-62 melanoma
[36] = tested on: IGROV1 ovarian
[37] = tested on: NCI-H522 lung
[38] = tested on: KM12 colon
[39] = tested on: SK-MEL-28 melanoma
[40] = tested on: SF-295 CNS
[41] = tested on: M14 melanoma
[42] = tested on: CCRF-CEM leukemia
[43] = tested on: MALME-3M melanoma
[44] = tested on: MCF7 breast
[45] = tested on: A549 NSCLC
[46] = tested on: SK-MEL-2 melanoma
[47] = tested on: NCI/ADR-RES ovarian
[48] = tested on: HT29 colon
[49] = tested on: SK-OV-3 ovarian
[50] = tested on: MDA-MB-435
[51] = tested on: HOP-62 NSCLC
[52] = tested on: SW-620 colon
[53] = tested on: T-47D breast
[54] = tested on: NCI-H460 lung
[55] = tested on: HCT-15 colon
[56] = tested on: SF-539 CNS
[57] = tested on: SR leukemia
[58] = tested on: SNB-75 CNS

Q: With `CN1C/C(=C\c2cccs2)C(=O)/C(=C/c2cccs2)C1` as the molecule, how does the TGI [1] read?
A: Its TGI is 71.2 µM.

Q: What about the TGI [2] of the same molecule?
A: The TGI was 48.3 µM.

Q: And the TGI [3]?
A: The TGI was 47.2 µM.

Q: And the TGI [4]?
A: The TGI was 55.4 µM.

Q: And the TGI [5]?
A: Its TGI is 41 µM.

Q: And the TGI [6]?
A: Its TGI is 66.1 µM.

Q: And the TGI [7]?
A: Its TGI is 32.3 µM.

Q: What about the TGI [8] of the same molecule?
A: Its TGI is greater than 100 µM.

Q: And the TGI [9]?
A: The TGI was greater than 100 µM.

Q: What about the TGI [10] of the same molecule?
A: Its TGI is greater than 100 µM.

Q: And the TGI [11]?
A: Its TGI is greater than 100 µM.

Q: What about the TGI [12] of the same molecule?
A: Its TGI is 91.7 µM.

Q: And the TGI [13]?
A: The TGI was greater than 100 µM.

Q: What about the TGI [14] of the same molecule?
A: The TGI was 49.2 µM.

Q: What about the TGI [15] of the same molecule?
A: The TGI was greater than 100 µM.

Q: What about the TGI [16] of the same molecule?
A: Its TGI is 45.5 µM.

Q: What about the TGI [17] of the same molecule?
A: Its TGI is 66.8 µM.

Q: What about the TGI [18] of the same molecule?
A: Its TGI is 75.8 µM.

Q: What about the TGI [19] of the same molecule?
A: Its TGI is greater than 100 µM.

Q: What about the TGI [20] of the same molecule?
A: The TGI was 34.4 µM.

Q: What about the TGI [21] of the same molecule?
A: The TGI was greater than 100 µM.

Q: What about the TGI [22] of the same molecule?
A: The TGI was 45 µM.

Q: And the TGI [23]?
A: Its TGI is 72.1 µM.

Q: And the TGI [24]?
A: The TGI was greater than 100 µM.

Q: And the TGI [25]?
A: Its TGI is greater than 100 µM.

Q: What about the TGI [26] of the same molecule?
A: The TGI was 61.7 µM.

Q: And the TGI [27]?
A: Its TGI is greater than 100 µM.

Q: What about the TGI [28] of the same molecule?
A: The TGI was 74 µM.

Q: And the TGI [29]?
A: The TGI was 30.7 µM.

Q: And the TGI [30]?
A: The TGI was greater than 100 µM.

Q: And the TGI [31]?
A: The TGI was 54.8 µM.

Q: And the TGI [32]?
A: Its TGI is 76.5 µM.

Q: What about the TGI [33] of the same molecule?
A: Its TGI is greater than 100 µM.

Q: And the TGI [34]?
A: Its TGI is 67.3 µM.

Q: And the TGI [35]?
A: The TGI was greater than 100 µM.

Q: And the TGI [36]?
A: The TGI was 92.2 µM.

Q: What about the TGI [37] of the same molecule?
A: The TGI was greater than 100 µM.

Q: What about the TGI [38] of the same molecule?
A: Its TGI is 83.3 µM.

Q: What about the TGI [39] of the same molecule?
A: Its TGI is greater than 100 µM.

Q: And the TGI [40]?
A: Its TGI is greater than 100 µM.

Q: What about the TGI [41] of the same molecule?
A: Its TGI is 82.9 µM.

Q: And the TGI [42]?
A: Its TGI is 26.7 µM.

Q: And the TGI [43]?
A: Its TGI is greater than 100 µM.

Q: And the TGI [44]?
A: The TGI was greater than 100 µM.

Q: And the TGI [45]?
A: The TGI was greater than 100 µM.

Q: What about the TGI [46] of the same molecule?
A: The TGI was 48.9 µM.

Q: What about the TGI [47] of the same molecule?
A: Its TGI is 94.5 µM.

Q: And the TGI [48]?
A: The TGI was 50.5 µM.

Q: What about the TGI [49] of the same molecule?
A: The TGI was greater than 100 µM.

Q: What about the TGI [50] of the same molecule?
A: The TGI was 34.1 µM.

Q: What about the TGI [51] of the same molecule?
A: Its TGI is greater than 100 µM.

Q: What about the TGI [52] of the same molecule?
A: Its TGI is greater than 100 µM.

Q: And the TGI [53]?
A: Its TGI is 92.6 µM.

Q: What about the TGI [54] of the same molecule?
A: The TGI was greater than 100 µM.

Q: What about the TGI [55] of the same molecule?
A: The TGI was greater than 100 µM.

Q: How did the TGI [2] turn out when `O=[N+]([O-])c1ccc2nc(-c3ccc(Cl)cc3)[nH]c2c1` was run?
A: Its TGI is 81.5 µM.

Q: And the TGI [3]?
A: The TGI was greater than 100 µM.

Q: What about the TGI [4] of the same molecule?
A: Its TGI is greater than 100 µM.

Q: And the TGI [5]?
A: Its TGI is 35.3 µM.

Q: And the TGI [6]?
A: Its TGI is 67.9 µM.

Q: What about the TGI [7] of the same molecule?
A: The TGI was 57.4 µM.

Q: What about the TGI [8] of the same molecule?
A: Its TGI is 58 µM.

Q: What about the TGI [9] of the same molecule?
A: The TGI was 43.2 µM.

Q: And the TGI [10]?
A: The TGI was greater than 100 µM.

Q: And the TGI [11]?
A: The TGI was 72.5 µM.

Q: And the TGI [12]?
A: Its TGI is 30.7 µM.

Q: And the TGI [13]?
A: The TGI was 37.5 µM.

Q: What about the TGI [14] of the same molecule?
A: Its TGI is greater than 100 µM.

Q: And the TGI [15]?
A: The TGI was 71.7 µM.

Q: And the TGI [18]?
A: The TGI was 40.3 µM.

Q: And the TGI [19]?
A: Its TGI is 29.7 µM.

Q: What about the TGI [20] of the same molecule?
A: The TGI was 32 µM.

Q: And the TGI [21]?
A: The TGI was 63.6 µM.

Q: And the TGI [22]?
A: The TGI was 59.7 µM.

Q: And the TGI [23]?
A: Its TGI is 64.6 µM.

Q: What about the TGI [24] of the same molecule?
A: The TGI was 89.3 µM.

Q: And the TGI [25]?
A: Its TGI is 93.9 µM.

Q: What about the TGI [56] of the same molecule?
A: The TGI was 39.6 µM.

Q: What about the TGI [26] of the same molecule?
A: The TGI was 51.1 µM.

Q: And the TGI [28]?
A: The TGI was greater than 100 µM.

Q: And the TGI [30]?
A: The TGI was 60.5 µM.

Q: And the TGI [32]?
A: The TGI was greater than 100 µM.

Q: And the TGI [33]?
A: The TGI was 80.1 µM.

Q: What about the TGI [34] of the same molecule?
A: Its TGI is 64.2 µM.

Q: And the TGI [35]?
A: The TGI was 42 µM.

Q: What about the TGI [36] of the same molecule?
A: The TGI was 89.5 µM.

Q: And the TGI [37]?
A: Its TGI is 30.5 µM.

Q: And the TGI [57]?
A: The TGI was 79.9 µM.

Q: What about the TGI [39] of the same molecule?
A: The TGI was greater than 100 µM.

Q: And the TGI [40]?
A: The TGI was 42.7 µM.

Q: What about the TGI [41] of the same molecule?
A: The TGI was 34.5 µM.

Q: And the TGI [43]?
A: Its TGI is 63 µM.

Q: What about the TGI [44] of the same molecule?
A: The TGI was 62.8 µM.

Q: What about the TGI [45] of the same molecule?
A: Its TGI is 70.5 µM.

Q: And the TGI [47]?
A: Its TGI is 57.6 µM.

Q: What about the TGI [48] of the same molecule?
A: Its TGI is 32.8 µM.

Q: What about the TGI [49] of the same molecule?
A: The TGI was 60.4 µM.

Q: What about the TGI [50] of the same molecule?
A: Its TGI is 46.8 µM.

Q: What about the TGI [51] of the same molecule?
A: The TGI was 40.1 µM.

Q: What about the TGI [52] of the same molecule?
A: The TGI was greater than 100 µM.

Q: What about the TGI [53] of the same molecule?
A: The TGI was 55.7 µM.

Q: And the TGI [54]?
A: The TGI was 45.4 µM.

Q: And the TGI [55]?
A: Its TGI is 29.1 µM.

Q: What about the TGI [58] of the same molecule?
A: Its TGI is 68.5 µM.
